# Literature values as cited in patent US20080008727A1, “Compositions comprising adapalene dissolved with cyclodextrins” (GALDERMA RESEARCH & DEVELOPMENT, priority 2004, published 2008).
smiles,measurement,value
"COc1ccc(-c2ccc3cc(C(=O)O)ccc3c2)cc1C12CC3CC(CC(C3)C1)C2 [adapalene, 6-[3-(1-adamantyl)-4-methoxyphenyl]-2-naphthoic acid]",Solubility in water (in words),practically insoluble in water
